# Experimental data taken from US20200231614A1, “PSMA TARGETED RADIOHALOGENATED UREAS FOR CANCER RADIOTHERAPY” (THE JOHNS HOPKINS UNIVERSITY, priority 2015, published 2020).
# Like-named read-outs stand apart in the source and are kept apart here.
# System: PSMA + PC-3 PiP and PSMA − PC-3 flu tumor xenografts
# Details: for Biodistribution: PC-3 PiP: PSMA+ tumor xenograft; for Biodistribution: PC-3 flu: PSMA− tumor xenograft
# [1] = 21 H post-injection, comparative Table 13
compound,measurement,setting,value
N=C(N)NCc1ccc(C(=O)NCCCC[C@H](NC(=O)N[C@@H](CCC(=O)O)C(=O)O)C(=O)O)cc1[131I] [[^131I] labeled 7 (PSMA-620)],Biodistribution: Sm int.,1 H post-injection,3.14 ± 0.66 % ID/g
same,Biodistribution: bladder,1 H post-injection,1.99 ± 0.50 % ID/g
same,Biodistribution: blood,1 H post-injection,0.95 ± 0.15 % ID/g
same,Biodistribution: heart,1 H post-injection,1.29 ± 0.37 % ID/g
same,Biodistribution: kidney,1 H post-injection,103 ± 24.0 % ID/g
same,Biodistribution: liver,1 H post-injection,8.25 ± 2.47 % ID/g
same,Biodistribution: lung,1 H post-injection,3.29 ± 0.56 % ID/g
same,Biodistribution: muscle,1 H post-injection,0.56 ± 0.05 % ID/g
same,Biodistribution: spleen,1 H post-injection,17.1 ± 3.71 % ID/g
same,Biodistribution: stomach,1 H post-injection,2.01 ± 0.41 % ID/g
same,Biodistribution: thyroid,1 H post-injection,0.79 ± 0.17 % ID/g
same,Biodistribution: Sm int.,2 H post-injection,2.29 ± 0.69 % ID/g
same,Biodistribution: bladder,2 H post-injection,1.65 ± 0.48 % ID/g
same,Biodistribution: blood,2 H post-injection,0.58 ± 0.08 % ID/g
same,Biodistribution: heart,2 H post-injection,0.89 ± 0.18 % ID/g
same,Biodistribution: kidney,2 H post-injection,89.0 ± 5.18 % ID/g
same,Biodistribution: liver,2 H post-injection,5.62 ± 1.17 % ID/g
same,Biodistribution: lung,2 H post-injection,1.99 ± 0.23 % ID/g
same,Biodistribution: muscle,2 H post-injection,0.34 ± 0.08 % ID/g
same,Biodistribution: spleen,2 H post-injection,6.81 ± 3.20 % ID/g
same,Biodistribution: stomach,2 H post-injection,2.55 ± 0.69 % ID/g
same,Biodistribution: thyroid,2 H post-injection,0.77 ± 0.25 % ID/g
same,Biodistribution: Sm int.,4 H post-injection,1.32 ± 0.68 % ID/g
same,Biodistribution: bladder,4 H post-injection,1.96 ± 1.10 % ID/g
same,Biodistribution: blood,4 H post-injection,0.30 ± 0.08 % ID/g
same,Biodistribution: heart,4 H post-injection,0.75 ± 0.34 % ID/g
same,Biodistribution: kidney,4 H post-injection,77.7 ± 38.8 % ID/g
same,Biodistribution: liver,4 H post-injection,4.37 ± 2.96 % ID/g
same,Biodistribution: lung,4 H post-injection,1.69 ± 0.67 % ID/g
same,Biodistribution: muscle,4 H post-injection,0.23 ± 0.10 % ID/g
same,Biodistribution: spleen,4 H post-injection,3.63 ± 2.40 % ID/g
same,Biodistribution: stomach,4 H post-injection,2.87 ± 0.55 % ID/g
same,Biodistribution: thyroid,4 H post-injection,0.75 ± 0.17 % ID/g
same,Biodistribution: Sm int.,14 H post-injection,0.42 ± 0.12 % ID/g
same,Biodistribution: bladder,14 H post-injection,0.74 ± 0.35 % ID/g
same,Biodistribution: blood,14 H post-injection,0.16 ± 0.04 % ID/g
same,Biodistribution: heart,14 H post-injection,0.48 ± 0.12 % ID/g
same,Biodistribution: kidney,14 H post-injection,17.2 ± 10.7 % ID/g
same,Biodistribution: liver,14 H post-injection,0.60 ± 0.28 % ID/g
same,Biodistribution: lung,14 H post-injection,1.02 ± 0.27 % ID/g
same,Biodistribution: muscle,14 H post-injection,0.10 ± 0.02 % ID/g
same,Biodistribution: spleen,14 H post-injection,1.27 ± 0.42 % ID/g
same,Biodistribution: stomach,14 H post-injection,2.24 ± 1.08 % ID/g
same,Biodistribution: thyroid,14 H post-injection,0.74 ± 0.27 % ID/g
same,Biodistribution: Sm int.,21 H post-injection,0.31 ± 0.07 % ID/g
same,Biodistribution: bladder,21 H post-injection,0.56 ± 0.37 % ID/g
same,Biodistribution: blood,21 H post-injection,0.09 ± 0.07 % ID/g
same,Biodistribution: heart,21 H post-injection,0.40 ± 0.11 % ID/g
same,Biodistribution: kidney,21 H post-injection,7.52 ± 1.82 % ID/g
same,Biodistribution: liver,21 H post-injection,0.33 ± 0.06 % ID/g
same,Biodistribution: lung,21 H post-injection,1.00 ± 0.21 % ID/g
same,Biodistribution: muscle,21 H post-injection,0.09 ± 0.01 % ID/g
same,Biodistribution: spleen,21 H post-injection,0.93 ± 0.37 % ID/g
same,Biodistribution: stomach,21 H post-injection,1.91 ± 0.95 % ID/g
same,Biodistribution: thyroid,21 H post-injection,0.88 ± 0.13 % ID/g
same,Biodistribution: PC-3 PiP,1 H post-injection,16.5 ± 4.78 % ID/g
same,Biodistribution: PC-3 PiP,2 H post-injection,17.2 ± 4.34 % ID/g
same,Biodistribution: PC-3 PiP,4 H post-injection,18.3 ± 4.27 % ID/g
same,Biodistribution: PC-3 PiP,14 H post-injection,15.8 ± 2.42 % ID/g
same,Biodistribution: PC-3 PiP,21 H post-injection,13.6 ± 3.33 % ID/g
same,Biodistribution: PC-3 flu,1 H post-injection,1.09 ± 0.21 % ID/g
same,Biodistribution: PC-3 flu,2 H post-injection,0.80 ± 0.11 % ID/g
same,Biodistribution: PC-3 flu,4 H post-injection,0.57 ± 0.21 % ID/g
same,Biodistribution: PC-3 flu,14 H post-injection,0.28 ± 0.10 % ID/g
same,Biodistribution: PC-3 flu,21 H post-injection,0.20 ± 0.08 % ID/g
O=C(O)CC[C@H](NC(=O)N[C@@H](CCC(=O)NCCc1ccc([211At])cc1)C(=O)O)C(=O)O [[^211At]HS-549],Biodistribution: Lrg Int.,1 H post-injection,1.16 ± 0.20 % ID/g
same,Biodistribution: Sm int.,1 H post-injection,5.52 ± 0.82 % ID/g
same,Biodistribution: bladder,1 H post-injection,5.85 ± 1.62 % ID/g
same,Biodistribution: blood,1 H post-injection,5.53 ± 0.84 % ID/g
same,Biodistribution: heart,1 H post-injection,4.34 ± 0.96 % ID/g
same,Biodistribution: kidney,1 H post-injection,46.7 ± 8.24 % ID/g
same,Biodistribution: liver,1 H post-injection,7.94 ± 2.15 % ID/g
same,Biodistribution: lung,1 H post-injection,9.77 ± 1.75 % ID/g
same,Biodistribution: muscle,1 H post-injection,1.11 ± 0.29 % ID/g
same,Biodistribution: spleen,1 H post-injection,8.79 ± 2.09 % ID/g
same,Biodistribution: stomach,1 H post-injection,7.07 ± 2.24 % ID/g
same,Biodistribution: thyroid,1 H post-injection,3.24 ± 0.56 % ID/g
same,Biodistribution: Lrg Int.,2 H post-injection,4.59 ± 0.81 % ID/g
same,Biodistribution: Sm int.,2 H post-injection,3.81 ± 1.24 % ID/g
same,Biodistribution: bladder,2 H post-injection,5.04 ± 0.87 % ID/g
same,Biodistribution: blood,2 H post-injection,2.87 ± 0.40 % ID/g
same,Biodistribution: heart,2 H post-injection,3.36 ± 0.59 % ID/g
same,Biodistribution: kidney,2 H post-injection,40.4 ± 15.5 % ID/g
same,Biodistribution: liver,2 H post-injection,4.65 ± 1.28 % ID/g
same,Biodistribution: lung,2 H post-injection,8.24 ± 2.25 % ID/g
same,Biodistribution: muscle,2 H post-injection,0.76 ± 0.18 % ID/g
same,Biodistribution: spleen,2 H post-injection,6.13 ± 1.59 % ID/g
same,Biodistribution: stomach,2 H post-injection,14.3 ± 3.18 % ID/g
same,Biodistribution: thyroid,2 H post-injection,4.11 ± 2.0 % ID/g
same,Biodistribution: Lrg Int.,21 H post-injection,0.93 ± 0.41 % ID/g
same,Biodistribution: Sm int.,21 H post-injection,1.28 ± 0.30 % ID/g
same,Biodistribution: bladder,21 H post-injection,2.78 ± 0.82 % ID/g
same,Biodistribution: blood,21 H post-injection,0.92 ± 0.15 % ID/g
same,Biodistribution: kidney,21 H post-injection,2.60 ± 0.77 % ID/g
same,Biodistribution: liver,21 H post-injection,0.89 ± 0.13 % ID/g
same,Biodistribution: lung,21 H post-injection,4.26 ± 0.72 % ID/g
same,Biodistribution: muscle,21 H post-injection,0.29 ± 0.09 % ID/g
same,Biodistribution: spleen,21 H post-injection,2.31 ± 0.67 % ID/g
same,Biodistribution: stomach,21 H post-injection,12.6 ± 6.20 % ID/g
same,Biodistribution: thyroid,21 H post-injection,3.78 ± 0.63 % ID/g
same,Non-target organ uptake: spleen,[1],2.2 % D/g
same,Non-target organ uptake: stomach,[1],12.6 % D/g
same,Non-target organ uptake: thyroid,[1],3.8 % D/g
same,Biodistribution: PC-3 PiP,1 H post-injection,43.25 ± 9.81 % ID/g
same,Biodistribution: PC-3 PiP,2 H post-injection,42.0 ± 7.16 % ID/g
same,Biodistribution: PC-3 PiP,21 H post-injection,10.6 ± 9.91 % ID/g
same,Biodistribution: PC-3 flu,1 H post-injection,3.48 ± 0.53 % ID/g
same,Biodistribution: PC-3 flu,2 H post-injection,2.82 ± 0.60 % ID/g
same,PSMA positive tumor uptake (in words),"biodistributions of Tables 2, 3, 9, 10",demonstrated PSMA positive tumor uptake
same,Renal clearance and normal tissue uptake (in words),compared with YC-I-27,faster renal clearance and lower normal tissue uptake than YC-I-27
same,Clearance from the kidneys (in words),compared with [^131I]YC-I-27 and [^211At]YC-I-27,clear from the kidneys giving higher tumor to kidney ratios
same,In vivo stability of the At-211 label (in words),"from uptake in stomach, spleen and thyroid compared to the ^131I analogue",some instability of the At-211 label
